Laboratory results from patent US11912668B2, “GCN2 and perk kinase inhibitors and methods of use thereof” (Deciphera Pharmaceuticals, LLC, priority 2020, dated 2024).

Assays:
[1] = system: phospho-GCN2 (Thr899) in HCT116 colorectal cancer cells; experiment: HCT116 amino acid starved (-AA) phospho-GCN2 assay (Western blot); format: cell-based; settings: Homo sapiens, HCT-116, 4 h, read-out: HCT116-AA pGCN2 Western Blot
Experimental: (§1) HCT116 colorectal cancer cells (catalog #CCL-247) were obtained from the American Type Culture Collect (ATTC, Manassas, VA). Briefly, cells were grown in RPMI 1640 supplemented with 10% heat inactivated fetal bovine serum (Invitrogen, Carlsbad, CA) and 1% Penicillin/Streptomycin/L-Glutamine at 37° C., 5% CO2, and 95% humidity. Cells were expanded until reaching 70-95% confluency at which point they were subcultured or harvested for assay use. Cells were seeded in 12-well culture plate at five hundred thousand cells per well in 1 mL complete growth medium and incubated overnight at 37° C., 5% CO2, and 95% humidity. The next day each well was replaced with 1 mL Earle's Balanced Salt Solution (EBSS, Invitrogen, Carlsbad, CA) supplemented with 10% Dialyzed Fetal Bovine Serum, 5.5 mM Glucose, 1% Penicillin/Streptomycin and 1% Vitamin solution (thermo #11120052). A serial dilution of test compound was dispensed into well. Plates were incubated for 4 h at 37° C., 5% CO2, and 95% humidity. At the end of the incubation, cells were washed with PBS supplemented with 1× Halt protease inhibitor, 1× Halt phosphatase inhibitor, 1× Sigma phosphatase inhibitor cocktail 2 and 1×EDTA and then lysed with M-PER Mammalian Protein Extraction Reagent supplemented with 3× of the inhibitor mix as described above. Cell lysates were sonicated with water bath sonicator (Qsonica, Newtown, CT) and supernatants were boiled with SDS buffer and reducing agent. Western blot was performed on each lysate to quantify phospho-GCN2 (Thr899), total GCN2, ATF4 and beta-Actin. Membranes were imaged with LI-COR Odyssey CLx Imaging System (LI-COR, Lincoln, NE). Data were analyzed using GraphPad Prism software (GraphPad, San Diego, CA) to calculate IC50 values.

PERK kinase = PERK kinase (Homo sapiens (Human), UniProt Q9NZJ5); experiment: Biochemical assay for PERK (coupled pyruvate kinase/lactate dehydrogenase assay); settings: 1 mM ATP, rate from 2-3 h time frame
Chain of PERK kinase (Q9NZJ5 other isoform, or with tags, fused parts or gaps): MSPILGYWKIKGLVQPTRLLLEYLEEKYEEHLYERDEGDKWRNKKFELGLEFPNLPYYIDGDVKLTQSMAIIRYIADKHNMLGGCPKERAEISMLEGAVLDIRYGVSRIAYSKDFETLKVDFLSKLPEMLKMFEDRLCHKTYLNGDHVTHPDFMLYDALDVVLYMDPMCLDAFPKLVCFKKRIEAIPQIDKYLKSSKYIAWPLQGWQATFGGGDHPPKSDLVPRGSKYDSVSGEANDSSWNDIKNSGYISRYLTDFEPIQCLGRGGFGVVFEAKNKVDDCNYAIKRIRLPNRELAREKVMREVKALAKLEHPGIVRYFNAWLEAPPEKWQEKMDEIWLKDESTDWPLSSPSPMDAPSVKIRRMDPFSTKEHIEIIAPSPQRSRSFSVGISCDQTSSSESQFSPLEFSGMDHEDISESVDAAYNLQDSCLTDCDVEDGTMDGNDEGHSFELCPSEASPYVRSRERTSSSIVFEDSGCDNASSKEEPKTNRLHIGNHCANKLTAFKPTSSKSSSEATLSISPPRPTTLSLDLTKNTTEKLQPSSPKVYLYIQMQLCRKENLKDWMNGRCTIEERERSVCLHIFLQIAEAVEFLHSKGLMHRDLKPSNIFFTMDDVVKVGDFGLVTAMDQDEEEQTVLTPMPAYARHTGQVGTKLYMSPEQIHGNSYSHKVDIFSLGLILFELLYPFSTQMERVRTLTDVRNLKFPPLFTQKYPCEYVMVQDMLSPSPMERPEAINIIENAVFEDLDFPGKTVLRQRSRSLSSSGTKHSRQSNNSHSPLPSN
Experimental: Activity of PERK kinase was determined spectroscopically using a coupled pyruvate kinase/lactate dehydrogenase assay that continuously monitors the ATP hydrolysis-dependent oxidation of NADH (e.g., Schindler et al. Science (2000) 289: 1938-1942). Assays were conducted in 384-well plates (100 μL final volume) using 10 nM PERK (from Beryllium), 0.25 mg/mL Myelin Basic Protein substrate, 1.5 units pyruvate kinase, 2.1 units lactate dehydrogenase, 1 mM phosphoenol pyruvate, 0.28 mM NADH and 1 mM ATP in assay buffer (100 mM Tris, pH 7.5, 15 mM MgCl2, 0.5 mM DTT, 0.004% (w/v) BSA, and 0.004% Triton X-100). Inhibition of PERK was measured by adding serial diluted test compound (final assay concentration of 1% DMSO). A decrease in absorption at 340 nm was monitored continuously for 6 hours at 30° C. on a multi-mode microplate reader (BioTek). The reaction rate was calculated using the 2-3 h time frame. The reaction rate at each concentration of compound was converted to percent inhibition using controls (i.e. reaction with no test compound and reaction with a known inhibitor) and IC50 values were calculated using software routines in Prism (GraphPad software).

CCRF-CEM leukemia cells = experiment: CCRF-CEM ASNase cell proliferation assay, phenotypic assay for cellular inhibition of GCN2; format: cell-based; settings: Homo sapiens; ASNase treated CCRF-CEM cells, 1 mU/mL ASNase, 72 h
Experimental: CCRF-CEM leukemia cells (catalog #CCL-116) were obtained from the American Type Culture Collect (ATTC, Manassas, VA). Cells were grown in RPMI-1640 medium supplemented with 10% heat-inactivated fetal bovine serum (Invitrogen, Carlsbad, CA) and 1% Penicillin/Streptomycin/L-Glutamine at 37° C., 5% CO2, and 95% humidity. Cells were expanded until reaching one million cells per mL at which time they are subcultured or harvested for assay use. Ten thousand cells per well in 200 μL RPMI-1640 supplemented with 10% heat-inactivated fetal bovine serum and 1% Penicillin/Streptomycin were dispensed into a 96-well black clear bottom plate. A serial dilution of test compound and 1 mU/mL ASNase was added in triplicate and plates were incubated for 72 h at 37° C., 5% CO2, and 95% humidity. At the end of the incubation, 40 μL of a […] solution of resazurin (Sigma, St. Louis, MO) in PBS was added to each well of the plate and plates were incubated for an additional 6 h at 37° C., 5% CO2, and 95% humidity. Plates were read on a Synergy2 or equivalent reader (Biotek, Winooski VT) using an excitation of 540 nm and an emission of 600 nm. Data was analyzed using GraphPad Prism software (GraphPad, San Diego, CA) to calculate IC50 values.

GCN2 kinase = GCN2 kinase (Homo sapiens (Human), UniProt Q9P2K8); experiment: Biochemical assay for GCN2 (TR-FRET kinase activity assay); settings: 1 mM ATP, 3-hour incubation
Chain of GCN2 kinase (Q9P2K8 whole entry): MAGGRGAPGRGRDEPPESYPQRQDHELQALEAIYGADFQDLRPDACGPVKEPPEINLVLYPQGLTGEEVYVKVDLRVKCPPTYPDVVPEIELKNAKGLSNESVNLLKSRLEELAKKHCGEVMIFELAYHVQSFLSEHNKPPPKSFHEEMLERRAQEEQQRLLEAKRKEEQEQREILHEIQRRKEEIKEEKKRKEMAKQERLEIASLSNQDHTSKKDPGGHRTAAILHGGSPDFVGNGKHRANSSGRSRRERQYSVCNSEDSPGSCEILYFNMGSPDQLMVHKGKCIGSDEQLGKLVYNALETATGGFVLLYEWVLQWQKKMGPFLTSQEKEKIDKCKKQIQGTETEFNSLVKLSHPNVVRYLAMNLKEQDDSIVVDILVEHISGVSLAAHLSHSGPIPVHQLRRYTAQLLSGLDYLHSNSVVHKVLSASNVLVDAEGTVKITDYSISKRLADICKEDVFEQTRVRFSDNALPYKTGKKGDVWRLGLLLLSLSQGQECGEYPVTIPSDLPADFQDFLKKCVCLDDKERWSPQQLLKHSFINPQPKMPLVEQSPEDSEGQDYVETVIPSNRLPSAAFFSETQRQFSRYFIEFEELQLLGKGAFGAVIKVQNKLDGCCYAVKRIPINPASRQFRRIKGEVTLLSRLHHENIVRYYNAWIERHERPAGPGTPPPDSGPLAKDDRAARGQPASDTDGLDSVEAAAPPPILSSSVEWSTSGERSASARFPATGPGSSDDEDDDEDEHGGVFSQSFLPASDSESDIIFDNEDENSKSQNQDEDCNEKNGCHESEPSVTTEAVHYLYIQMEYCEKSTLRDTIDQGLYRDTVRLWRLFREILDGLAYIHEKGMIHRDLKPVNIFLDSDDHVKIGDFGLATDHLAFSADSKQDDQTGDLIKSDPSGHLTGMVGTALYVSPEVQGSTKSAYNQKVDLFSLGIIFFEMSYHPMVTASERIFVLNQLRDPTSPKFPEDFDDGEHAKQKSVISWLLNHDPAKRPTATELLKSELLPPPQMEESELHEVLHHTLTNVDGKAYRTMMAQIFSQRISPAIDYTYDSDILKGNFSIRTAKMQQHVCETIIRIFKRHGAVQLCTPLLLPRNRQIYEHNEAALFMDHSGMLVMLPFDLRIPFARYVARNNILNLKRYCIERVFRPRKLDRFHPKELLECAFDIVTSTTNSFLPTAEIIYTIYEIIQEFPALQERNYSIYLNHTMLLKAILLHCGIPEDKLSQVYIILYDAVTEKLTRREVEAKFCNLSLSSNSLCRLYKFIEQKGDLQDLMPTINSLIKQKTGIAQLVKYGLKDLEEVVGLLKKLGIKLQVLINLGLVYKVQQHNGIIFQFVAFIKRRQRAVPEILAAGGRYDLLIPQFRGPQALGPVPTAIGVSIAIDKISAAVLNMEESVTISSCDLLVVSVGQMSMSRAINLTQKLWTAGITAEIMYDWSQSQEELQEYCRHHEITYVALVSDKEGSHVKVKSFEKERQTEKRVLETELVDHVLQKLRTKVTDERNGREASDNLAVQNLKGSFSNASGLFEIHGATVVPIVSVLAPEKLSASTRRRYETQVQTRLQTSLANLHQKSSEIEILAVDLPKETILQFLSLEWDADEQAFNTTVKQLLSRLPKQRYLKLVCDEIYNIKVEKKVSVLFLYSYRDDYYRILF
Experimental: Activity of GCN2 kinase was determined using a TR-FRET kinase activity assay (e.g. Riddle et al. Analytical Biochemistry (2006) 356(1) 108-116). Assays were conducted in 384-well plates (13 μL assay volume) using 2 nM GCN2 (Carna Biosciences), 130 nM GFP-EIf2α (Invitrogen), 0.2 mg/mL E. coli tRNA (sigma) and 1 mM ATP in kinase buffer (Invitrogen). Inhibition of GCN2 was measured by adding serial diluted test compound (final assay concentration of 0.5% DMSO) followed by a 3-hour incubation. Tb-peIF2α (pSer52) antibody (Invitrogen) (2 nM final assay concentration) in kinase buffer containing ETDA (final assay concentration of 20 mM) was added. After a 60 min incubation at room temperature, TR-FRET was monitored using an excitation wavelength of 340 nm and emission wavelengths of 490 nm and 520 nm. The emission ratio (520/490) at each compound concentration of was converted to percent inhibition using controls (i.e. reaction with no test compound and reaction with a known inhibitor) and IC50 values were calculated by fitting a four-parameter sigmoidal curve to the data using Prism (GraphPad software).

[2] = system: ATF4 in HCT116 colorectal cancer cells; experiment: HCT116 amino acid starved (-AA) ATF4 assay (Western blot); format: cell-based; settings: Homo sapiens, HCT-116, 4 h
Experimental: as §1

[3] = system: ATF4 in CCRF-CEM leukemia cells (PERK); experiment: CCRF-CEM TG ATF4 ELISA, phenotypic assay for cellular inhibition of PERK preactivated by thapsigargin; format: cell-based; settings: Homo sapiens; Thapsigargin (1 μM) stimulated CCRF-CEM cells
Experimental: CCRF-CEM leukemia cells (catalog #CCL-116) were obtained from the American Type Culture Collection (ATTC, Manassas, VA). Briefly, cells were grown in RPMI-1640 medium supplemented with 10% heat-inactivated fetal bovine serum (Invitrogen, Carlsbad, CA) and 1% Penicillin/Streptomycin/L-Glutamine at 37° C., 5% CO2, and 95% humidity. Cells were expanded until reaching one million cells per mL at which time they were subcultured or harvested for assay use. One million five hundred thousand cells per well in 1 mL complete growth medium were dispensed into 12-well plates and incubated overnight. A serial dilution of test compound was added and cells were incubated at 37° C., 5% CO2, and 95% for three hours, then 1 μM thapsigargin was added and cells were incubated for an additional hour at 37° C., 5% CO2, and 95%. Cells were lysed then ATF4 levels were measured using an ELISA assay (Proteintech, Rosemont, IL). Absorbance was measured at 450 nm and 544 nM using a Synergy2 or equivalent reader (Biotek, Winooski VT). Data was analyzed using PRISM software (Graphpad, San Diego, CA) to calculate IC50 values.

SMILES	IC50 [1] [nM]	IC50 (PERK kinase) [nM]	IC50 (CCRF-CEM leukemia cells) [nM]	IC50 (GCN2 kinase) [nM]	IC50 [2] [nM]	IC50 [3] [nM]
CNc1cc2nc(C)c(-c3cccc(NS(=O)(=O)c4cc(Cl)cc(CO)c4Cl)c3F)cc2cn1 [Example 45]	≤ 100	≤ 100	≤ 100	≤ 100	≤ 100	100 to 500
CNc1cc2nc(C)c(-c3cc(NS(=O)(=O)c4cc(Cl)cnc4OC)ccc3F)cc2cn1 [Example 44]	≤ 100	≤ 100	≤ 100	≤ 100	≤ 100	1000 to 10000
COc1ncc(Cl)cc1S(=O)(=O)Nc1cc(F)cc(-c2cc3cnc(Nc4cnn(C)c4)nc3nc2C)c1 [Example 87]	≤ 100	≤ 100	≤ 100	≤ 100	≤ 100	1000 to 10000
CNc1ncc2cc(-c3cc(F)cc(NS(=O)(=O)c4cc(Cl)cnc4OC)c3)c(N)nc2n1 [Example 63]	≤ 100	≤ 100	≤ 100	≤ 100	≤ 100	1000 to 10000
CNc1ncc2cc(-c3cccc(NS(=O)(=O)c4cc(OC)ccc4Cl)c3F)c(NC)nc2n1 [Example 168]	–	≤ 100	100 to 500	≤ 100	–	1000 to 10000
CNc1ncc2cc(-c3cc(F)cc(NS(=O)(=O)c4cc(Cl)cnc4OC)c3)c(NC)nc2n1 [Example 11]	≤ 100	100 to 500	100 to 500	≤ 100	≤ 100	1000 to 10000
CNc1cc2ncc(-c3cccc(NS(=O)(=O)c4cc(Cl)cc(CO)c4Cl)c3F)cc2cn1 [Example 4, 2,5-dichloro-N-(2-fluoro-3-(7-(methylamino)-1,6-naphthyridin-3-yl)phenyl)-3-(hydroxymethyl)benzenesulfonamide]	–	≤ 100	1000 to 10000	≤ 100	–	≤ 100
CNc1ncc2cc(-c3cccc(NS(=O)(=O)c4cc(Cl)cnc4OC)c3F)c(C)nc2n1 [Example 3, 5-chloro-N-(2-fluoro-3-(7-methyl-2-(methylamino)pyrido[2,3-d]pyrimidin-6-yl)phenyl)-2-methoxypyridine-3-sulfonamide]	≤ 100	≤ 100	≤ 100	≤ 100	≤ 100	–
CNc1ncc2cc(-c3cccc(NS(=O)(=O)c4cc(F)cc(CO)c4Cl)c3F)c(NC)nc2n1 [Example 177]	–	100 to 500	≤ 100	≤ 100	–	100 to 500
CNc1ncc2cc(-c3cccc(NS(=O)(=O)c4cc(Cl)cnc4OC)c3)c(NC)nc2n1 [Example 15]	≤ 100	100 to 500	100 to 500	≤ 100	100 to 500	–
COc1cc2nc(N)ncc2cc1-c1cccc(NS(=O)(=O)c2cc(Cl)cc(CO)c2Cl)c1F [Example 167]	–	≤ 100	≤ 100	≤ 100	–	≤ 100
COc1nc2nc(N)ncc2cc1-c1cccc(NS(=O)(=O)c2cc(Cl)cnc2OC)c1F [Example 165]	–	≤ 100	≤ 100	≤ 100	–	1000 to 10000
CNc1nc2nc(NC(C)=O)ncc2cc1-c1cc(F)cc(NS(=O)(=O)c2cc(Cl)cnc2OC)c1 [Example 164]	–	100 to 500	100 to 500	≤ 100	–	1000 to 10000
CNc1ncc2cc(-c3cccc(NS(=O)(=O)c4cc(Cl)cnc4OC)c3F)c(OC)cc2n1 [Example 159]	–	≤ 100	≤ 100	≤ 100	–	500 to 1000
CNc1cc2nc(N)c(-c3cccc(NS(=O)(=O)c4cc(Cl)cc(CO)c4Cl)c3F)cc2cn1 [Example 171]	–	–	≤ 100	–	–	≤ 100
CNc1ncc2cc(-c3cccc(NS(=O)(=O)c4cc(Cl)cc(C(N)=O)c4Cl)c3F)c(NC)nc2n1 [Example 112]	–	1000 to 10000	–	1000 to 10000	–	–
CNc1ncc2cc(-c3cccc(NS(=O)(=O)c4cc(Cl)cc(CO)c4F)c3F)c(NC)nc2n1 [Example 176]	–	≤ 100	≤ 100	≤ 100	–	1000 to 10000
CNc1ncc2cc(-c3cc(F)cc(NS(=O)(=O)c4cc(Cl)cnc4OC)c3)c(C)nc2n1 [Example 65]	≤ 100	100 to 500	100 to 500	–	100 to 500	1000 to 10000
COc1ncc(Cl)cc1S(=O)(=O)Nc1ccc(C)c(-c2ccc3cc(N)ncc3c2)c1 [Example 28]	–	100 to 500	–	1000 to 10000	–	–
CNc1ncc2cc(-c3cc(NS(=O)(=O)c4cc(Cl)cnc4OC)ccc3C)c(NC)nc2n1 [Example 24]	–	100 to 500	–	100 to 500	–	–
CNc1ncc2cc(-c3cccc(NS(=O)(=O)c4cc(F)cc(CO)c4F)c3F)c(NC)nc2n1 [Example 178]	–	100 to 500	≤ 100	≤ 100	–	1000 to 10000
CNc1cnc(OC)c(S(=O)(=O)Nc2cccc(-c3cc4cnc(NC)cc4nc3C)c2F)c1 [Example 162]	–	100 to 500	≤ 100	≤ 100	–	–
